From patent publication US11851421B2, “Near-infrared cyanine dyes and conjugates thereof” (BRACCO IMAGING S.P.A., priority 2020, dated 2023)

Legend:
[1] = Optical properties: excitation/emission maxima and absolute fluorescence quantum yield; assay type: physicochemical
Experimental: A dual-beam UV-VIS spectrophotometer (Lambda 40, Perkin Elmer) was used to determine the absorbance (Abs) of the compounds of the invention. Emission/excitation (Em/Ex) spectra and absolute fluorescence quantum yield (ϕ) measurements were carried out on a spectrofluorometer (FluoroLog-3 1IHR-320, Horiba Jobin Yvon) equipped with an F-3018 integrating sphere accessory. The measurements were performed using an excitation wavelength at maximum absorbance of different dyes, and the sample was excited with a 450 W Xenon Light Source. Detection was performed by photomultiplier tubes (PMT-NIR) cooled detector or by TBX-04 detector. Dye solutions were carefully prepared to have an absorbance lower than 0.1 (optical densities) to minimize re-absorption phenomena.
The compounds of the invention have been characterized in terms of their optical properties in vitro in aqueous medium (i.e., water/PBS pH 7.4) and in a clinical chemistry control serum (Seronorm, Sero SA), mimicking the chemical composition and optical properties of human serum. All dye or dye-conjugate solutions were freshly prepared. ICG and S0456 were used as commercial references.
In particular, the excitation and emission maxima and the absolute fluorescence quantum yield (Φ) of representative compounds of formula (I) and conjugates of formula (II) are shown in Table II.

[2] = biological target: T1, human recombinant integrin αvβ3 (Homo sapiens, UniProt P05106+P06756); assay: Receptor binding affinity ELISA (Vitronectin-coated plates); details: duplicate, read-out: Receptor affinity (IC50, nM ± St. Dev.)
T1 construct: purchased R&D Systems
Experimental: Briefly, 96-well ELISA plates were coated overnight at 4° C. with the extracellular matrix (ECM) protein Vitronectin in carbonate buffer (15 mM Na2CO3, 35 mM NaHCO3, pH 9.6). Each well was then washed with PBS-T-buffer (phosphate-buffered saline/Tween20, 137 mM NaCl, 2.7 mM KCl, 10 mM Na2HPO4, 2 mM KH2PO4, 0.01% Tween20, pH 7.4) and blocked for 1 h at RT with TS-B-buffer (Tris-saline/BSA buffer; 20 mM Tris-HCl, 150 mM NaCl, 1 mM CaCl2, 1 mM MgCl2, 1 mM MnCl2, pH 7.5, 1% BSA). In the meantime, a dilution series of the compound and internal standard was prepared in an extra plate. After washing the assay plate three times with PBS-T, 50 μL of the dilution series were transferred to each well. 50 μL of a solution of human recombinant integrin αvβ3 (R&D Systems, 1 μg/mL) in TS-B-buffer was transferred to the wells and incubated for 1 h. The plate was washed three times with PBS-T buffer, and then primary antibody anti-αvβ3 was added to the plate. After incubation and washing three times with PBS-T, the secondary anti-IgG peroxidase-labeled antibody was added to the plate and incubated for 1 h. After washing the plate three times with PBS-T, the plate was developed by quick addition of 3,3′,5,5′-tetrametylbenzidine (TMB) and incubated for 5 min in the dark. The reaction was stopped with 3 M H2SO4, and the absorbance was measured at 450 nm with a plate reader (Victor3, Perkin Elmer).
The IC50 of the representative Compounds 1, 2 and 4 was tested in duplicate, and the resulting inhibition curves were analyzed using GraphPad Prism version 4.0 for Windows (GraphPad Software). The inflection point defines the IC50 value.

[3] = biological target: T2, human serum albumin (HSA) (Homo sapiens, UniProt P02768); assay: Binding affinity to human serum albumin (absorbance peak shift or ultrafiltration method)
T2 construct: purchased Sigma Aldrich A9511
Experimental: An analysis of the binding affinity of the compounds of the invention to human albumin was carried out and the results compared with ICG and […] as a reference. Binding affinity to human serum albumin (HSA; Sigma Aldrich, A9511) was measured using two methods, according to the level of binding affinity of the compounds. The first method, optimal for compounds which strongly interact with HSA, is based on the analysis of the absorbance spectrum peak shift after the incubation of the dye in solutions containing HSA. […] The measure was performed at the maximum absorbance wavelength of the shifted peak. The second method, optimal for compound with low affinity for HSA, is based on measuring the variation of the absorbance of solutions containing the dye and various concentrations of HSA after ultrafiltration. […] In the first method, ΔA/b corresponds to the absorbance measured for each sample, whereas in the second method ΔA/b is obtained subtracting the absorbance of the control sample (dye without HSA) to the absorbance of each other sample.

[4] = test system: WM-266-4 human melanoma cells; assay: Cell uptake by FACS in presence of human serum; assay type: cell-based; details: WM-266-4 cells; fluorescence intensity in absence of serum = 100%
Experimental: The human melanoma cell line WM-266-4 (ATCC, CRL-1676) was used as in vitro model to assess the cell uptake of representative integrin-binding Compounds 1, 2 and 4, based on the high expression of the integrin receptors, particularly αvβ3, on the membrane of these cells (Capasso et al., PlosOne 2014).
Adherent cells at about 70% confluence were incubated with the Compounds 1 or 3 (1 μM) for 2 h at 37° C. (5% CO2) in presence of Dulbecco's Modified Eagle's Medium (DMEM) supplemented with 10% FBS, 2 mM glutamine, 100 IU/mL penicillin and 100 μg/mL streptomycin. […] Fluorescence Activated Cell Sorting (FACS) was used to detect the fluorescence signal within the cells, as measure of cell uptake. Samples were excited with an Argon laser and the emission detected using a 670 nm longpass filter. Values of fluorescence intensity were obtained from the histogram statistic produced by the instrument software.
The residual internalization was calculated by considering the value of fluorescence intensity in absence of the competitor as 100%.
Furthermore, to assess the effect of biological fluids on the cell uptake, parallel experiments were performed incubating the cells with a compounds of the invention in presence of human serum from male AB plasma (Sigma Aldrich, H4522). The residual internalization was calculated by considering the value of fluorescence intensity in absence of the serum as 100%. […]

[5] = test system: human glioblastoma U87MG cells; assay: Tumor uptake in animal model of human glioblastoma (subcutaneous), ex vivo optical imaging; details: ex vivo tumor-to-muscle, 24 h after i.v. administration, glioblastoma tumor bearing mice, n = 5/group
Experimental: Tumor uptake experiments were carried out in an animal model of human glioblastoma (subcutanous) overexpressing the integrin receptors, particularly αvβ3. Briefly, human glioblastoma U87MG cells (ATCC, HTB-14) were cultured in Eagle's Minimum Essential Medium (EMEM) supplemented with 10% Fetal Bovine Serum (FBS), 2 mM glutamine, 100 IU/mL penicillin, 100 μg/mL streptomycin. Male Balb/c nu/nu mice, 4-6 weeks of age (Charles River Laboratories), underwent subcutaneous implantation (right flank) of about 10 million cells suspended in 0.1 mL of EMEM. Mice were housed 4 per cage with food and water ad libitum. Animals were fed with VRF1 (P) sterile diet (Special Diets Services Ltd) up to the end of the acclimation period (5 days). Then, AIN-76a rodent diet irradiated (Research Diets), a special diet that reduces auto-fluorescence, was used up to the end of the experiments. Tumor growth was monitored by longitudinal assessments using a caliper up to the target size of 300-600 mm^3 (3-4 weeks after cell implantation). […] Regions of interest (ROIs) were drawn on the excised tumor and healthy muscle tissues to evaluate signal intensity (expressed as Average Radiant Efficiency). The ratio between the fluorescence signal in the tumor and in the muscle (background tissue) was then calculated to assess the contrast.

[6] = Seronorm (clinical chemistry control serum)

T2 sequence (P02768 25-609): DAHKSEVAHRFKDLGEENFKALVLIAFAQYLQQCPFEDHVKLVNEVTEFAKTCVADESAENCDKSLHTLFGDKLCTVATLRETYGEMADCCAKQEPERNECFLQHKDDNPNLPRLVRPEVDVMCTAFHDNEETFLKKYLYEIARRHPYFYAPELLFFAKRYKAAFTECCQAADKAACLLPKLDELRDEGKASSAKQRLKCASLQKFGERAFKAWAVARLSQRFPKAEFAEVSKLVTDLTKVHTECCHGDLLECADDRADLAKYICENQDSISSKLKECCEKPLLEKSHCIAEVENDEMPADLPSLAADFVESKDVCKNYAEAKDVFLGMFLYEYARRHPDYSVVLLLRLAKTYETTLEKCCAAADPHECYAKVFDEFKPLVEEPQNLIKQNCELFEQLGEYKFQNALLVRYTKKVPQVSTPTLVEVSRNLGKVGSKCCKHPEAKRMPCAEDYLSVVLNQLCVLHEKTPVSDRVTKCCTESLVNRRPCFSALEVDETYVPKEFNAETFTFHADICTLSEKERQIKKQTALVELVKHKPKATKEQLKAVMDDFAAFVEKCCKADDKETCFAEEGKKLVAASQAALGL
T1 sequence (P06756 31-992 limits assumed): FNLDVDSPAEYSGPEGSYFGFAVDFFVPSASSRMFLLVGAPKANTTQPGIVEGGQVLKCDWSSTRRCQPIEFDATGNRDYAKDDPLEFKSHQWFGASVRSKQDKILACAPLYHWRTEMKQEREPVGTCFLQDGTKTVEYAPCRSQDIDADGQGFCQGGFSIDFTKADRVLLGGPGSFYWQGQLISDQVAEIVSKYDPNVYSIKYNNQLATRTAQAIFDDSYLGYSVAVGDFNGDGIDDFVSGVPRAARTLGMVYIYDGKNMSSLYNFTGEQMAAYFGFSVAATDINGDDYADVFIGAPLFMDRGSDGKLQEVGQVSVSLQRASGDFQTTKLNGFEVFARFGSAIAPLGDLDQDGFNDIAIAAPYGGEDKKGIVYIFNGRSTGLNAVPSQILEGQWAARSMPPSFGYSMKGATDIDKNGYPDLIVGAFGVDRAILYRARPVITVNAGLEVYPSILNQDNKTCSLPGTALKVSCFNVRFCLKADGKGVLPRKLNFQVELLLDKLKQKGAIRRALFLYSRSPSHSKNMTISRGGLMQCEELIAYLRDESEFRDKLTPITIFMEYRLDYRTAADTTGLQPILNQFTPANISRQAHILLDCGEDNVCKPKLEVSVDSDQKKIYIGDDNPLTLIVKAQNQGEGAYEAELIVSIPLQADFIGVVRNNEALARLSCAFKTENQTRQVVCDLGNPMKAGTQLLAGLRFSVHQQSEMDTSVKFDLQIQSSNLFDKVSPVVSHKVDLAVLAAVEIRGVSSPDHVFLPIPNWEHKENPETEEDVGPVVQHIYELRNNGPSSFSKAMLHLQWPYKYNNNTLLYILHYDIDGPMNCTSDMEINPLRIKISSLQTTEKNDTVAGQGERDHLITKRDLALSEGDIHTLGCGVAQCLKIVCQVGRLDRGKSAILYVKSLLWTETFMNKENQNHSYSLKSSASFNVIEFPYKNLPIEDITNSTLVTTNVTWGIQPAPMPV
T1 sequence (P05106 27-718 limits assumed): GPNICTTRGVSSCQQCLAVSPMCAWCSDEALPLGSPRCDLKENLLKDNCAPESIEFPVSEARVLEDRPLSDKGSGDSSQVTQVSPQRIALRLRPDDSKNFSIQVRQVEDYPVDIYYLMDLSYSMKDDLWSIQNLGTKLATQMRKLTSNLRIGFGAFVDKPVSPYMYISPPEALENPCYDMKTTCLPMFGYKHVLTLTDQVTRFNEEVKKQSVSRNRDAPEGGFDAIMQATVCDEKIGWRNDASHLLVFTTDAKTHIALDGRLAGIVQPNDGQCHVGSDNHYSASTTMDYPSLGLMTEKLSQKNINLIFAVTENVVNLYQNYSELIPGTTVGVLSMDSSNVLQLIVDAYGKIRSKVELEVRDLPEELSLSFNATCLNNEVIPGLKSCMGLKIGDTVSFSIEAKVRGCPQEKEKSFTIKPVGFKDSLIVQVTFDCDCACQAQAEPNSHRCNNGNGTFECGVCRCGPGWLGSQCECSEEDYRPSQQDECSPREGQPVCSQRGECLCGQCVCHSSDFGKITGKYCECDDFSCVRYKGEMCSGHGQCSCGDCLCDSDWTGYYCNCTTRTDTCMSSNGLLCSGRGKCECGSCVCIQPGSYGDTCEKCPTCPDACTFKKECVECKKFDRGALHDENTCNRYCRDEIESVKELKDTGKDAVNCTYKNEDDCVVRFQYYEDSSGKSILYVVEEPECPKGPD

Compound | Max Em (emission maximum) ([1]; PBS pH 7.4) | Max Ex (excitation maximum) ([1]; PBS pH 7.4) | Φ (absolute fluorescence quantum yield) ([1]; PBS pH 7.4) | Φ (absolute fluorescence quantum yield) [1, 6] | Kd [3] | HSA affinity (KA) [3] | IC50 [2] | Residual cell uptake in presence of human serum [4] | Tumor-to-background ratio (mean ± St. Dev) [5]
CC1(C)C(/C=C/C2=C(c3ccccc3)C(=C/C=C3\N(CCCCCC(=O)NCCCCC4NC(=O)[C@@H](Cc5ccccc5)NC(=O)[C@H](CC(=O)O)NC(=O)CNC(=O)[C@H](CCCNC(=N)N)NC4=O)c4ccc(C(=O)NCC(O)C(O)C(O)C(O)CO)cc4C3(C)C)/CCC2)=[N+](CCCCS(=O)(=O)[O-])c2ccc(C(=O)NCC(O)C(O)C(O)C(O)CO)cc21 (stereo partly drawn) [Compound 3] | 787 nm | 771 nm | 6.4% | 8.1% |  |  |  |  | 
CC1(C)C(/C=C/C2=C(Oc3ccccc3)C(=C/C=C3/N(CCCCCC(=O)NCCCCC4NC(=O)[C@@H](Cc5ccccc5)NC(=O)[C@H](CC(=O)O)NC(=O)CNC(=O)[C@H](CCCNC(=N)N)NC4=O)c4ccc(C(=O)NCC(O)C(O)C(O)C(O)CO)cc4C3(C)C)/CCC2)=[N+](CCCCS(=O)(=O)[O-])c2ccc(C(=O)NCC(O)C(O)C(O)C(O)CO)cc21 (stereo partly drawn) [Compound 4] | 803 nm | 781 nm | 5.0% | 9.9% | 100 µM |  | 1.84 ± 0.38 nM | 85% | 7.64 ± 0.86
CC1(C)C(/C=C/C2=C(Oc3ccc(S(=O)(=O)O)cc3)C(=C/C=C3/N(CCCCCC(=O)O)c4ccc(C(=O)NCC(O)C(O)C(O)C(O)CO)cc4C3(C)C)/CCC2)=[N+](CCCCS(=O)(=O)[O-])c2ccc(C(=O)NCC(O)C(O)C(O)C(O)CO)cc21 (stereo not drawn) [Compound 15] |  |  |  |  | 11 µM |  |  |  | 
CC1(C)C(/C=C/C2=C(Oc3ccccc3)C(=C/C=C3/N(CCCCS(=O)(=O)O)c4ccc(C(=O)NC5C(O)C(O)C(O)C(O)C5O)cc4C3(C)C)/CCC2)=[N+](CCCCS(=O)(=O)[O-])c2ccc(C(=O)NC3C(O)C(O)C(O)C(O)C3O)cc21 (stereo not drawn) [Compound 20] | 801 nm | 780 nm | 6.3% | 7.7% | 72.5 µM |  |  |  | 
CC1(C)C(/C=C/C2=C(Cl)C(=C/C=C3/N(CCCCS(=O)(=O)[O-])c4ccc(S(=O)(=O)[O-])cc4C3(C)C)/CCC2)=[N+](CCCCS(=O)(=O)[O-])c2ccc(S(=O)(=O)[O-])cc21.[Na+].[Na+].[Na+] [Compound S0456, reference compound] | 803 nm | 782 nm | 3.9% | 7.7% |  | 350,000 M^−1 |  |  | 
CC1(C)C(/C=C/C=C/C=C/C=C2\N(CCCCS(=O)(=O)O)c3ccc4ccccc4c3C2(C)C)=[N+](CCCCS(=O)(=O)[O-])c2ccc3ccccc3c21 [ICG, Indocyanine green, reference compound] | 810 nm | 780 nm | 1.5% | 7.8% |  |  |  |  | 

Now from value to molecule, other results behind:

Max Em (emission maximum) ([1]; PBS pH 7.4) | Max Ex (excitation maximum) ([1]; PBS pH 7.4) | Φ (absolute fluorescence quantum yield) ([1]; PBS pH 7.4) | Φ (absolute fluorescence quantum yield) [1, 6] | Kd [3] | HSA affinity (KA) [3] | Compound | IC50 [2] | Residual cell uptake in presence of human serum [4] | Tumor-to-background ratio (mean ± St. Dev) [5]
786 nm | 764 nm | 6.3% | 11.5% | 154 µM |  | CC1(C)C(/C=C/C2=C(c3ccc(CCC(=O)O)cc3)C(=C/C=C3/N(CCCCS(=O)(=O)O)c4ccc(C(=O)NCC(O)C(O)C(O)C(O)CO)cc4C3(C)C)/CCC2)=[N+](CCCCS(=O)(=O)[O-])c2ccc(C(=O)NCC(O)C(O)C(O)C(O)CO)cc21 (stereo not drawn) [Compound 11] |  |  | 
788 nm | 768 nm | 5.5% | 11.8% | 81.6 µM |  | CC1(C)C(/C=C/C2=C(c3ccccc3)C(=C/C=C3/N(CCCCS(=O)(=O)O)c4ccc(C(=O)NCC(O)C(O)C(O)C(O)CO)cc4C3(C)C)/CCC2)=[N+](CCCCS(=O)(=O)[O-])c2ccc(C(=O)NCC(O)C(O)C(O)C(O)CO)cc21 (stereo not drawn) [Compound 17] |  |  | 
804 nm | 781 nm | 6.2% | 10.5% | 68.5 µM |  | CC1(C)C(/C=C/C2=C(Oc3ccccc3)C(=C/C=C3/N(CCCCS(=O)(=O)O)c4ccc(C(=O)NCC(O)CO)cc4C3(C)C)/CCC2)=[N+](CCCCS(=O)(=O)[O-])c2ccc(C(=O)NCC(O)CO)cc21 (stereo not drawn) [Compound 18] |  |  | 
805 nm | 783 nm | 6.5% | 10.9% | 35.3 µM |  | CC1(C)C(/C=C/C2=C(Oc3ccccc3)C(=C/C=C3/N(CCCCS(=O)(=O)O)c4ccc(C(=O)NC(CO)CO)cc4C3(C)C)/CCC2)=[N+](CCCCS(=O)(=O)[O-])c2ccc(C(=O)NC(CO)CO)cc21 [Compound 19] |  |  | 
790 nm | 769 nm | 5.6% | 12.8% | 30.9 µM |  | CC1(C)C(/C=C/C2=C(c3ccccc3)C(=C/C=C3/N(CCCCS(=O)(=O)O)c4ccc(C(=O)NC(CO)(CO)CO)cc4C3(C)C)/CCC2)=[N+](CCCCS(=O)(=O)[O-])c2ccc(C(=O)NC(CO)(CO)CO)cc21 [Compound 21] |  |  | 
803 nm | 782 nm | 6.1% | 9.8% | 120 µM |  | CC1(C)C(/C=C/C2=C(c3ccccc3)C(=C/C=C3/N(CCCCC(=O)O)c4ccc(C(=O)NCC(O)C(O)C(O)C(O)CO)cc4C3(C)C)/CCC2)=[N+](CCCCS(=O)(=O)[O-])c2ccc(C(=O)NCC(O)C(O)C(O)C(O)CO)cc21 (stereo not drawn) [Compound 22] |  |  | 
